Source: article PMC5641405 (Organic letters, 2017)

Legend:
[1] = biological target: N-methyl-D-aspartate (NMDA) receptor, MK-801 binding site; assay: radioligand displacement of [3H]-MK801; settings: read-out: IC50 (μM) ^a; MK-801 channel site
[2] = biological target: N-methyl-D-aspartate (NMDA) receptor, MK-801 binding site; assay: radioligand displacement of [3H]-MK801; settings: read-out: Ki (μM) ^a; MK-801 channel site

Row | Compound | IC50 [1] | Ki [2]
1 | CNC1(c2ccccc2Cl)CCCCC1=O (racemic) [compound 1, (R,S)-ketamine] | 0.35 µM | 0.25 µM
2 | N[C@@]1(c2ccccc2Cl)CCC=CC1=O [3a, (R)-DHNK] | 59.7 µM | 42.1 µM
3 | N[C@]1(c2ccccc2Cl)CCC=CC1=O [3b, (S)-DHNK] | 42 µM | 29.7 µM
4 | N[C@@]1(c2ccccc2Cl)CCC[C@H](O)C1=O [4a, (2R,6S)-HNK] | > 100 µM | > 100 µM
5 | N[C@]1(c2ccccc2Cl)CCC[C@@H](O)C1=O [4b, (2S,6R)-HNK] | > 100 µM | > 100 µM
6 | N[C@@]1(c2ccccc2Cl)CCC[C@@H](O)C1=O [7a, (2R,6R)-HNK] | > 100 µM | > 100 µM
7 | N[C@]1(c2ccccc2Cl)CCC[C@H](O)C1=O [7b, (2S,6S)-HNK] | 10.4 µM | 7.34 µM
8 | N[C@@]1(c2ccccc2Cl)CC[C@@H](O)CC1=O [8a, (2R,5R)-HNK] | > 100 µM | > 100 µM
9 | N[C@]1(c2ccccc2Cl)CC[C@H](O)CC1=O [8b, (2S,5S)-HNK] | > 100 µM | > 100 µM
10 | N[C@@]1(c2ccccc2Cl)CC[C@H](O)CC1=O [9a, (2R,5S)-HNK] | > 100 µM | > 100 µM
11 | N[C@]1(c2ccccc2Cl)CC[C@@H](O)CC1=O [9b, (2S,5R)-HNK] | > 100 µM | > 100 µM
12 | N[C@@]1(c2ccccc2Cl)C[C@@H](O)CCC1=O [10a, (2R,4S)-HNK] | > 100 µM | > 100 µM
13 | N[C@]1(c2ccccc2Cl)C[C@H](O)CCC1=O [10b, (2S,4R)-HNK] | > 100 µM | > 100 µM
14 | N[C@@]1(c2ccccc2Cl)C[C@H](O)CCC1=O [11a, (2R,4R)-HNK] | > 100 µM | > 100 µM
15 | N[C@]1(c2ccccc2Cl)C[C@@H](O)CCC1=O [11b, (2S,4S)-HNK] | > 100 µM | > 100 µM
16 | (+)-MK-801 [reference compound] | 0.00493 µM | 0.00348 µM
